Test results reported in paper PMC4904262 (ACS Medicinal Chemistry Letters, 2016).
Where two headings read alike, the source gives them in different places.

Legend:
[1] = mouse, in vivo, iv, 0.2 mg/kg
[2] = molecular target: CDK19 in the presence of cyclin C (Homo sapiens, UniProt Q9BWU1); assay: biochemical; details: read-out: CDK19 residence time ± SD
[3] = molecular target: MAPKAP-K3 (Homo sapiens, UniProt Q16644); details: 1 µM, ATP at Km
[4] = rat, in vivo, 0.2 mg/kg
[5] = molecular target: CDK9/CYCLINT1 (Homo sapiens, UniProt P50750); details: 1 µM, ATP at Km
[6] = molecular target: CDK8 in the presence of cyclin C (Homo sapiens, UniProt P49336); assay: biochemical; details: read-out: CDK8 residence time ± SD
[7] = in vivo; details: mouse
[8] = test system: Caco-2; details: human
[9] = in vitro; details: mouse, microsomes
[10] = molecular target: ABL (H396P) (Homo sapiens, UniProt P00519, H396P); details: 1 µM, ATP at Km
[11] = molecular target: HCK (Homo sapiens, UniProt P08631); details: HCK (second listing, page 11); 1 µM; ATP at Km
[12] = molecular target: EGFR(L861Q) (Homo sapiens, UniProt P00533, L861Q); details: 1 µM, ATP at Km
[13] = molecular target: […](D842V) (Homo sapiens, UniProt P16234, D842V); details: 1 µM, ATP at Km
[14] = molecular target: TIE2(R849W) (Homo sapiens, UniProt Q02763, R849W); details: 1 µM, ATP at Km
[15] = molecular target: RET (V804L) (Homo sapiens, UniProt P07949, V804L); details: 1 µM, ATP at Km
[16] = test system: PI3 KINASE (P65A); details: 1 µM, ATP at Km
[17] = molecular target: EGFR(T790M) (Homo sapiens, UniProt P00533, T790M); details: 1 µM, ATP at Km
[18] = molecular target: FMS(Y969C) (Homo sapiens, UniProt P07333, Y969C); details: 1 µM, ATP at Km
[19] = molecular target: cMET (M1268T) (Homo sapiens, UniProt P08581, M1250T); details: 1 µM, ATP at Km
[20] = molecular target: BTK(R28H) (Homo sapiens, UniProt Q06187, R28H); details: 1 µM, ATP at Km
[21] = molecular target: CHK2(R145W) (Homo sapiens, UniProt O96017, R145W); details: 1 µM, ATP at Km
[22] = molecular target: PI3 KINASE (H1047R/P85A) (Homo sapiens, UniProt P42336, H1047R); details: 1 µM, ATP at Km
[23] = molecular target: cMET (Y1248H) (Homo sapiens, UniProt P08581, Y1230H); details: 1 µM, ATP at Km
[24] = molecular target: EGFR(L858R) (Homo sapiens, UniProt P00533, L858R); details: 1 µM, ATP at Km
[25] = molecular target: EGFR(T790M,L858R) (Homo sapiens, UniProt P00533, L858R/T790M); details: 1 µM, ATP at Km
[26] = molecular target: cMET (Y1248D) (Homo sapiens, UniProt P08581, Y1230D); details: 1 µM, ATP at Km
[27] = molecular target: TIE2(Y897S) (Homo sapiens, UniProt Q02763, Y897S); details: 1 µM, ATP at Km
[28] = molecular target: FLT3(D835Y) (Homo sapiens, UniProt P36888, D835Y); details: 1 µM, ATP at Km
[29] = molecular target: ABL (Q252H) (Homo sapiens, UniProt P00519, Q252H); details: 1 µM, ATP at Km

BTK(R28H), sequence (Q06187 whole entry R28H): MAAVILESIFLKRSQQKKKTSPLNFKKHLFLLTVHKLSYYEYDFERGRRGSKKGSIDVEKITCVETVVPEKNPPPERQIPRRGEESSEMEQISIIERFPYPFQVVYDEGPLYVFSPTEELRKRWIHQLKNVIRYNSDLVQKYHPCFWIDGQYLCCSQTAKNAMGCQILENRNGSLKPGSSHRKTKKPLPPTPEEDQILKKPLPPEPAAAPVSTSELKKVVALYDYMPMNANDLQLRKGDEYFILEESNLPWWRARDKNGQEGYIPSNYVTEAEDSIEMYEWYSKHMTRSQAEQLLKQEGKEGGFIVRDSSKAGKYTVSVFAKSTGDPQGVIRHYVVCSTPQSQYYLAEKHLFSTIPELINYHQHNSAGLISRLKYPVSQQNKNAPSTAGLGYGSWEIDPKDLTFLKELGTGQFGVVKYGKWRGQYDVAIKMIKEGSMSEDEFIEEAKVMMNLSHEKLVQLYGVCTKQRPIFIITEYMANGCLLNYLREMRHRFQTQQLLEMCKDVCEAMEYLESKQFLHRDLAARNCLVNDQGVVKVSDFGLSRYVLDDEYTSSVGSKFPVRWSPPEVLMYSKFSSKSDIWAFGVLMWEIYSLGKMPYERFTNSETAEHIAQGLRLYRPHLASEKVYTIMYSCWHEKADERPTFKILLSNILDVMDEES
CHK2(R145W), sequence (O96017 whole entry R145W): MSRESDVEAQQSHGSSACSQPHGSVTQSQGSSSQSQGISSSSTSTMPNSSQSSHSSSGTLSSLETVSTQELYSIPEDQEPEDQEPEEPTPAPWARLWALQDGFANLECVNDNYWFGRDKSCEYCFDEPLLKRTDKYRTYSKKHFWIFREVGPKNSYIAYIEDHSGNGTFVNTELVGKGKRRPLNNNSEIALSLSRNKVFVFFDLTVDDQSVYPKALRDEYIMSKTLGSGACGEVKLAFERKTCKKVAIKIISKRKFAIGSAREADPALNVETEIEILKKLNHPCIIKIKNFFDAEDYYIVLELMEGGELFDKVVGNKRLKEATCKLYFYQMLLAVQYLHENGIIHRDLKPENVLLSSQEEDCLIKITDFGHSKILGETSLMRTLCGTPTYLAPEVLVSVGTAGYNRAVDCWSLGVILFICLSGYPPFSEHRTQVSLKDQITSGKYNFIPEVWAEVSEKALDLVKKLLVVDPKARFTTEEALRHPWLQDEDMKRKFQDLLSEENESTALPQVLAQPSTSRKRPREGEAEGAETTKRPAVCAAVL
MAPKAP-K3, sequence (Q16644 whole entry): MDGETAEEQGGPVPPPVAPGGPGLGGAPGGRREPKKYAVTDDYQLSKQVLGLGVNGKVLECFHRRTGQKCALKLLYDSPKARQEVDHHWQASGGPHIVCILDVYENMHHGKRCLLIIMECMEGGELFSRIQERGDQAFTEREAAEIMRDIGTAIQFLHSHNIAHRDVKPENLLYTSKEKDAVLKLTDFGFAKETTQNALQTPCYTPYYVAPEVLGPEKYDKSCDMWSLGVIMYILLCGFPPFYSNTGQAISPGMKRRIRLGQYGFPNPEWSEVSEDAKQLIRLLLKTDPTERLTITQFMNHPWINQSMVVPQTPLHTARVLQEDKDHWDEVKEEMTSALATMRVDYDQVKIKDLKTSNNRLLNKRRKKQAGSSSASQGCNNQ
[…](D842V), sequence (P16234 24-1089 D842V): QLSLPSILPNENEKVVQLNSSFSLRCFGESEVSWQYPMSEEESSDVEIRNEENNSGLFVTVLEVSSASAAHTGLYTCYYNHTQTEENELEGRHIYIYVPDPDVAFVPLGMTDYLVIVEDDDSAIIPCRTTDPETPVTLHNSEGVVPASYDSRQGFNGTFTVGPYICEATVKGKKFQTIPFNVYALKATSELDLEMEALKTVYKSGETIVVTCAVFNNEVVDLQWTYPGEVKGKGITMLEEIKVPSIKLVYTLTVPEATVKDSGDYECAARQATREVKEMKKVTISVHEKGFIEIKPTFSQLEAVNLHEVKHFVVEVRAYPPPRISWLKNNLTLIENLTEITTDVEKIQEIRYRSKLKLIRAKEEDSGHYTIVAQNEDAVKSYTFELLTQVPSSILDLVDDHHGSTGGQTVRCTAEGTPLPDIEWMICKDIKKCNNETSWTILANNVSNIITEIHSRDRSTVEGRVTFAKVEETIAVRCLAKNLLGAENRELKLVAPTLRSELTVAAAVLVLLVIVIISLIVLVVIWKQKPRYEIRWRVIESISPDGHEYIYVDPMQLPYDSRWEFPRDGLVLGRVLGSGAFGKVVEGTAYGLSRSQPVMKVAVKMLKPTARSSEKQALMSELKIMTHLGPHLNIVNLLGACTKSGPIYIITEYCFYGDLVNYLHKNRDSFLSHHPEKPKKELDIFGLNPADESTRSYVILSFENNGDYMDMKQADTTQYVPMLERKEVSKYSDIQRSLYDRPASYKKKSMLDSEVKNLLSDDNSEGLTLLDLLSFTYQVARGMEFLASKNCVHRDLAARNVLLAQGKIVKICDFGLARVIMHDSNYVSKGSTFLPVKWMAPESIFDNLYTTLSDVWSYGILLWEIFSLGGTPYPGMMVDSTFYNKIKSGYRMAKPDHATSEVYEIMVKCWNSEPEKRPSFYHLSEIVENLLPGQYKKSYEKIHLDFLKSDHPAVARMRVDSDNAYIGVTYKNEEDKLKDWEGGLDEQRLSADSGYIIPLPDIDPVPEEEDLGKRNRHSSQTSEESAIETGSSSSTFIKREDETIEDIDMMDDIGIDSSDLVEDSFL
FMS(Y969C), sequence (P07333 20-972 Y969C): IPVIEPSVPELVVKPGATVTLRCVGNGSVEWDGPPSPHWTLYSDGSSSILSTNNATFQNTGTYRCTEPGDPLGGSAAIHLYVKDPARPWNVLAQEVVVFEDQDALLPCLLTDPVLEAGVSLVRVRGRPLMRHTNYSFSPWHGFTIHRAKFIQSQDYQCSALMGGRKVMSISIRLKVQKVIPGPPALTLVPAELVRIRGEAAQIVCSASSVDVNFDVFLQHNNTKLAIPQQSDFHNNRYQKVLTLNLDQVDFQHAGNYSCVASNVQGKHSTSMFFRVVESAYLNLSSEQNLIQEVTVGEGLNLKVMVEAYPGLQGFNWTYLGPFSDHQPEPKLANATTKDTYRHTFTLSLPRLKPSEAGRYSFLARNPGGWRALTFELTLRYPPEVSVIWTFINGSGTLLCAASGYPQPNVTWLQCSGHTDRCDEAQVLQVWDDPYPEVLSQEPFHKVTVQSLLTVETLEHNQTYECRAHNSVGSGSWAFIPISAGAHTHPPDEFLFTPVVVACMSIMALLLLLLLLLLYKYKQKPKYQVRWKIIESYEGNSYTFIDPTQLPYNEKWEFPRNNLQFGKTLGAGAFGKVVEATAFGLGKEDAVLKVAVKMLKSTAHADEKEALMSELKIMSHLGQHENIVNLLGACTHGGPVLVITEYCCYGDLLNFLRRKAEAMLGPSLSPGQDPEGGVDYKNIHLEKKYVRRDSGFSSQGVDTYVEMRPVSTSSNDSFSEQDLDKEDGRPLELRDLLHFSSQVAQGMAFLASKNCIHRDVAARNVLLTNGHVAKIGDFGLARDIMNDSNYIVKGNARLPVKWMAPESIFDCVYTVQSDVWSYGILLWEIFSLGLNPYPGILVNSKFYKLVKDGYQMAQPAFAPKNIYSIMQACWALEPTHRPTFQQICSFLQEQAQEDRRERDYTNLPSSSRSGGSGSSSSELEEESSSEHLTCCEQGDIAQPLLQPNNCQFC
HCK, sequence (P08631 whole entry): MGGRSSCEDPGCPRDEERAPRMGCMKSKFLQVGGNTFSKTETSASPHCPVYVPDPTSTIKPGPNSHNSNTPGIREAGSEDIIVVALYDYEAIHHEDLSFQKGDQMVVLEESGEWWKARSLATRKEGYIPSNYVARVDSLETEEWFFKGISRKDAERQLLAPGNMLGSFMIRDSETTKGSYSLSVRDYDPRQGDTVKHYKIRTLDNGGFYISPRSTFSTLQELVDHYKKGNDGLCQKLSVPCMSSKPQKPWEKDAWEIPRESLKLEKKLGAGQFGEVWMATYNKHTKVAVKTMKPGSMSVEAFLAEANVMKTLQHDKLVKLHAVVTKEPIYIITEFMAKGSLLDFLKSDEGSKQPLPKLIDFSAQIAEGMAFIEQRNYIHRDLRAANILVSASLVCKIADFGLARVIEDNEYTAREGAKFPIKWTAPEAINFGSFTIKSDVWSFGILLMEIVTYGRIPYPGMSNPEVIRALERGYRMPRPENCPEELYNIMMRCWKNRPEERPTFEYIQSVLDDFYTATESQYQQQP
CDK19 in the presence of cyclin C, sequence (Q9BWU1 whole entry): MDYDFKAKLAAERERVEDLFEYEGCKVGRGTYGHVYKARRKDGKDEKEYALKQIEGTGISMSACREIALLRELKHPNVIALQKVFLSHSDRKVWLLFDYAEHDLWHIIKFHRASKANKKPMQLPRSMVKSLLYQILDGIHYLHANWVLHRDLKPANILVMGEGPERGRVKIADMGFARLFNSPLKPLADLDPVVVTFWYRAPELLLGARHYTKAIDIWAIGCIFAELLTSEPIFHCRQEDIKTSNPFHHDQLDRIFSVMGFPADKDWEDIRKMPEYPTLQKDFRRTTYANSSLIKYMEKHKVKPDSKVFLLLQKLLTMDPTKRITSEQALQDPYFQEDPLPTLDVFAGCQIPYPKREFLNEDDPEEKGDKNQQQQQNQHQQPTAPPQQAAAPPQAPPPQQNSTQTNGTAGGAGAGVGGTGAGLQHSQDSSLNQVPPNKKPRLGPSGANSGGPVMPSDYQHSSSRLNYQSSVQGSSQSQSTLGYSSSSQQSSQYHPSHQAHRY
CDK19 in the presence of cyclin C, sequence (P24863 whole entry partner): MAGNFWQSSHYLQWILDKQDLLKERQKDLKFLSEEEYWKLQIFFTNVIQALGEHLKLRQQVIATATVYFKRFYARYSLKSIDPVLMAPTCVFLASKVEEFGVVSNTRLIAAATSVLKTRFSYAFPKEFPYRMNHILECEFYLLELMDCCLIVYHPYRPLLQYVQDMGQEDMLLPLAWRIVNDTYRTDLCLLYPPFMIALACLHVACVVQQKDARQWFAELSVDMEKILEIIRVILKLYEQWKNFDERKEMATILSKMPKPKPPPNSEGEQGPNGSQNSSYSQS

SMILES: COC1CN(C(=O)c2ccc3c(N)ncc(-c4ccc(-c5cnn(C)c5)cc4)c3n2)C1 [Compound 51]
- % in feces (iv dosing) [1]: 31%
- residence time [2]: 31 ± 3 min
- percentage effect [3]: -15%
- % in feces (iv dosing) [4]: 36%
- percentage effect [5]: 8%
- residence time [6]: 15 ± 2 min
- Vd ([7]; iv, 0.2 mg/kg): 1.87 L/kg
- clearance ([7]; iv, 0.2 mg/kg): 32.3 mL/min/kg
- bioavailability ([7]; po, 0.5 mg/kg): 18%
- Caco-2 ER [8]: 5.9
- Caco-2 PappA-B [8]: 28.6 × 10^–6 cm/s
- microsomal CLint at 1 µM [9]: 52 µL/min/mg

SMILES: COC1CN(C(=O)c2ccc3c(N)ncc(-c4ccc(-c5cnn(C)c5)cc4)c3c2)C1 [Compound 59]
- percentage effect [10]: 5%
- percentage effect [11]: 0%
- percentage effect [12]: -9%
- percentage effect [13]: 1%
- percentage effect [14]: -12%
- percentage effect [15]: -9%
- percentage effect [16]: -4%
- percentage effect [17]: -2%
- percentage effect [18]: -31%
- percentage effect [19]: 5%
- percentage effect [20]: -12%
- percentage effect [21]: -6%
- percentage effect [22]: -2%
- percentage effect [23]: 6%
- percentage effect [24]: -15%
- percentage effect [25]: -2%
- percentage effect [26]: 19%
- percentage effect [27]: -6%
- percentage effect [28]: -10%
- percentage effect [29]: 9%
